How the values were obtained:
PCSK9-LDLR = target: T1, PCSK9-LDLR (Homo sapiens, UniProt Q8NBP7); details: parent peptide; read-out: IC50, PCSK9-LDLR binding (P5); cited from earlier work
T1 construct: purchased CycLex Co., Nagano, Japan (CircuLex)

LDL uptake, HepG2 cells [1] = assay: Fluorescent LDL uptake in HepG2 cells in the presence of PCSK9; assay type: cell-based, human; details: 50 µM + PCSK9 4 µg/mL; Figure 3C
Protocol: (§1) HepG2 cells (3 × 10^4/well) were seeded in 96-well plates and kept in complete growth medium for 2 days before treatment. The third day, cells were washed with PBS and then starved overnight (O/N) in DMEM without FBS and antibiotics. After starvation, they were treated with 4.0 μg/mL PCSK9 and 4.0 μg/mL PCSK9 + P5 and P5 analogs peptides (50 µM), and vehicle (H2O) for 2 h with at 37 °C under 5% CO2 atmosphere. Fluorescent LDL-uptake was finally assessed following optimized protocol. See Supplementary Materials for further details.
(§2) PBS for 1.5 h at RT. LDLR primary antibody solution (1:3000 in 5% BSA in PBS, 25 µL/well) was incubated O/N at +4 °C. […] The reaction was stopped with 2 M H2SO4 and then the absorbance at 450 nm was measured using the microplate reader Synergy H1 (Winoo-ski, VT, USA). After the read, cells were stained by adding 1 X Janus Green stain, incubat-ing for 5 min at RT. […]
(§3) Afterward 100 µL 0.5 M HCl for well were added and incubated for 10 min. After 10 sec-onds shaking, the OD at 595 nm was measured using the microplate reader Synergy H1 […]
(§4) Fluorescent LDL Uptake. […] The degree of LDL uptake was measured using the Synergy H1 fluo-rescent plate reader (Winooski, VT, USA) (excitation and emission wavelengths 540 and 570 nm, respectively). Fluorescent LDL-uptake was finally assessed following optimized […]

LDLR = assay: Western blot, LDLR protein level in HepG2; assay type: cell-based, human; details: 50 µM, 24 h
Protocol: A total of 1.5 × 10^5 HepG2 cells/well (24-well plate) were treated with 50 μM of P5 and P5 analogs for 24 h. Immunoblotting experiments were performed using optimized protocol. See Supplementary Materials for further details.
as §2, with “°C. Subsequently, the primary antibody solution was discarded and each sample was washed 5 times with 100 µL/well of PBS (each wash was for 5 min at RT). Goat anti-rabbit Ig-HRP secondary antibody solution (Santa Cruz) (1:6000 in 5% BSA in PBS, 50 µL/well), was added and incubated 1 h at RT.” for “°C.”
as §3, §4

LDL uptake, HepG2 cells [2] = assay: Fluorescent LDL uptake in HepG2 cells (peptide alone); assay type: cell-based, human; details: 50 µM, vs control, average ± SD, four independent experiments in duplicate
Protocol: as §1, §2, §3, §4

T1 sequence (Q8NBP7 153-692): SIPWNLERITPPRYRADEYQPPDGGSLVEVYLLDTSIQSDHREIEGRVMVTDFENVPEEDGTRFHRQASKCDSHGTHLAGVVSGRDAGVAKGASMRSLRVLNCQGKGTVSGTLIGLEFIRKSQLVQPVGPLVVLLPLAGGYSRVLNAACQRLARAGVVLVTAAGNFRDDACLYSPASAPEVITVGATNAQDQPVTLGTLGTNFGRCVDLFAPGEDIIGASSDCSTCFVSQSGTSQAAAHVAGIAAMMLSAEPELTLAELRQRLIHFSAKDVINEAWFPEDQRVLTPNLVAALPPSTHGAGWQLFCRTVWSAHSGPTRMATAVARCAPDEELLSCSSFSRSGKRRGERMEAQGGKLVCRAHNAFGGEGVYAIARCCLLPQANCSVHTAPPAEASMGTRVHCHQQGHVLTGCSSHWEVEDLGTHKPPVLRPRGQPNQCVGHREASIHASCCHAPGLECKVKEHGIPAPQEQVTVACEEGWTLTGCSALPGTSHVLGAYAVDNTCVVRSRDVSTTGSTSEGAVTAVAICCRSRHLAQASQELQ
T1 sequence (Q8NBP7 31-152 partner limits assumed): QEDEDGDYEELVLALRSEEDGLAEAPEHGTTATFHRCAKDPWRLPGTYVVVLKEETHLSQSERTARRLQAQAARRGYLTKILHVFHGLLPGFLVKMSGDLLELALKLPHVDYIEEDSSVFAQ

Sequence: LILPKHSDAD [Peptide P5, natural peptide derived from a peptic lupin protein hydrolysate]
- IC50 (PCSK9-LDLR): 1.6 µM
- ability to absorb LDL in presence of PCSK9 (LDL uptake, HepG2 cells [1]): improved
- LDLR protein level (words, P5) (LDLR): augmentation of the LDLR protein levels
- ability of HepG2 cells to uptake extracellular LDL (LDL uptake, HepG2 cells [2]): 203.8 ± 40.67%

From PMC8951016, “Computational Design and Biological Evaluation of Analogs of Lupin Peptide P5 Endowed with Dual PCSK9/HMG-CoAR Inhibiting Activity” (Pharmaceutics, 2022)
